Measured values reported in patent US9695155B2, “Herbicidal substituted pyrimidinyloxy benzene compounds” (E. I. DU PONT DE NEMOURS AND COMPANY, priority 2013, dated 2017).

What was measured:
[1] = test system: spring barley; test: Test D preemergence; type: in vivo, Hordeum vulgare
Method in brief: (§1)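 Plant response is a visual score from 0 (no effect) to 100 (complete control) relative to controls. Plants were kept in a controlled growth environment for 7 to 21 days after spraying. Preemergence treatments went onto silt loam soil; postemergence ones onto 1- to 4-leaf seedlings.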

[2] = test system: winter barley; test: Test D preemergence; type: in vivo, Hordeum vulgare
Method in brief: as §1

[3] = test system: wild radish; test: Test D postemergence; type: in vivo, Raphanus raphanistrum
Method in brief: as §1

[4] = test system: wild radish; test: Test D preemergence; type: in vivo, Raphanus raphanistrum
Method in brief: as §1

[5] = test system: wild oat; test: Test D preemergence; type: in vivo, Avena fatua
Excerpt: (§2) Seeds of plant species selected from bluegrass (annual bluegrass, Poa annua), blackgrass (Alopecurus myosuroides), canarygrass (littleseed canarygrass, Phalaris minor), chickweed (common chickweed, Stellaria media), galium (catchweed bedstraw, Galium aparine), bromegrass, downy (downy bromegrass, Bromus tectorum), field poppy (Papaver rhoeas), field violet (Viola arvensis), green foxtail (Setaria viridis), deadnettle (henbit deadnettle, Lamium amplexicaule), Italian ryegrass (Lolium multiflorum), kochia (Kochia scoparia), lambsquarters (Chenopodium album), oilseed rape (Brassica napus), pigweed (Amaranthus retroflexus), chamomile (scentless chamomile, Matricaria inodora), Russian thistle (Salsola kali), speedwell (bird's-eye speedwell, Veronica persica), spring barley (Hordeum vulgare), spring wheat (Triticum aestivum), wild buckwheat (Polygonum convolvulus), wild mustard (Sinapis arvensis), wild oat (Avena fatua), wild radish (Raphanus raphanistrum), windgrass (Apera spica-venti), winter barley (Hordeum vulgare), and winter wheat (Triticum aestivum) were planted into a silt loam soil and treated preemergence with test chemicals formulated in a non-phytotoxic solvent mixture which included a surfactant.
(§3) At the same time, these species were planted in pots containing Redi-Earth® planting medium (Scotts Company, 14111 Scottslawn Road, Marysville, Ohio 43041) comprising spaghnum peat moss, vermiculite, wetting agent and starter nutrients and treated with postemergence applications of the test chemicals formulated in the same manner. Plants ranged in height from 2 to 18 cm (1- to 4-leaf stage). Treated plants and controls were maintained in a controlled growth environment for 7 to 21 days after which time all species were compared to controls and visually evaluated. Plant response ratings, summarized in Table D, are based on a scale of 0 to 100 where 0 is no effect and 100 is complete control. A dash (-) response means no test result.

[6] = test system: blackgrass; test: Test D preemergence; type: in vivo, Alopecurus myosuroides
Excerpt: as §2, §3

[7] = test system: chickweed; test: Test D preemergence; type: in vivo, Stellaria media
Method in brief: as §1

[8] = test system: windgrass; test: Test D postemergence; type: in vivo, Apera spica-venti
Excerpt: as §2, §3

[9] = test system: Italian ryegrass; test: Test D preemergence; type: in vivo, Lolium multiflorum
Excerpt: as §2, §3

[10] = test system: bromegrass, downy; test: Test D preemergence; type: in vivo, Bromus tectorum
Excerpt: as §2, §3

[11] = test system: field poppy; test: Test D postemergence; type: in vivo, Papaver rhoeas
Excerpt: as §2, §3

[12] = 31 g ai/ha, scale 0 (no effect) to 100 (complete control)
[13] = 62 g ai/ha, scale 0 to 100 (0 no effect, 100 complete control)
[14] = 125 g ai/ha, scale 0 to 100 (0 no effect, 100 complete control)
[15] = 250 g ai/ha, scale 0 to 100 (0 no effect, 100 complete control)

Which “Plant response rating, Barley, Spring” value [1, 12] does the source give for `N#Cc1cccc(Oc2ncc(Cl)cn2)c1-n1cc(-n2ccc(C(F)(F)F)n2)cn1` [Compound 284] here?
Its value is 10.

What about the “Plant response rating, Barley, Spring” value ([1]; 62 g ai/ha, scale 0-100) of the same compound?
The value was 15.

What about the “Plant response rating, Barley, Spring” value ([1]; 125 g ai/ha, scale 0-100) of the same compound?
The value was 25.

And the “Plant response rating, Barley, Spring” value ([1]; 250 g ai/ha, scale 0-100)?
Its value is 35.

What about the “Plant response rating, Barley, Winter” value [2, 12] of the same compound?
Its value is 0.

And the “Plant response rating, Barley, Winter” value ([2]; 62 g ai/ha, scale 0-100)?
The value was 0.

And the “Plant response rating, Barley, Winter” value ([2]; 125 g ai/ha, scale 0-100)?
Its value is 15.

What about the “Plant response rating, Barley, Winter” value ([2]; 250 g ai/ha, scale 0-100) of the same compound?
Its value is 20.

And the “Plant response rating, Radish, Wild” value ([3]; 31 g ai/ha, scale 0-100)?
The value was 75.

What about the “Plant response rating, Radish, Wild” value [3, 13] of the same compound?
The value was 100.

What about the “Plant response rating, Radish, Wild” value [3, 14] of the same compound?
The value was 100.

What about the “Plant response rating, Radish, Wild” value [3, 15] of the same compound?
The value was 100.

And the “Plant response rating, Radish, Wild” value [4, 12]?
The value was 0.

And the “Plant response rating, Radish, Wild” value ([4]; 125 g ai/ha, scale 0-100)?
Its value is 0.

What about the “Plant response rating, Radish, Wild” value ([4]; 250 g ai/ha, scale 0-100) of the same compound?
The value was 35.

And the “Plant response rating, Oat, Wild” value [5, 12]?
The value was 0.

And the “Plant response rating, Oat, Wild” value ([5]; 62 g ai/ha, scale 0-100)?
Its value is 0.

And the “Plant response rating, Oat, Wild” value ([5]; 125 g ai/ha, scale 0-100)?
Its value is 20.

What about the “Plant response rating, Oat, Wild” value ([5]; 250 g ai/ha, scale 0-100) of the same compound?
The value was 50.

And the “Plant response rating, Blackgrass” value [6, 12]?
The value was 0.

What about the “Plant response rating, Blackgrass” value ([6]; 62 g ai/ha, scale 0-100) of the same compound?
The value was 10.

And the “Plant response rating, Blackgrass” value ([6]; 125 g ai/ha, scale 0-100)?
Its value is 35.

And the “Plant response rating, Blackgrass” value ([6]; 250 g ai/ha, scale 0-100)?
The value was 65.

What about the “Plant response rating, Chickweed” value [7, 12] of the same compound?
The value was 10.

What about the “Plant response rating, Chickweed” value ([7]; 62 g ai/ha, scale 0-100) of the same compound?
The value was 15.

What about the “Plant response rating, Chickweed” value ([7]; 125 g ai/ha, scale 0-100) of the same compound?
Its value is 20.

What about the “Plant response rating, Chickweed” value ([7]; 250 g ai/ha, scale 0-100) of the same compound?
The value was 30.

What about the “Plant response rating, Windgrass” value ([8]; 31 g ai/ha, scale 0-100) of the same compound?
The value was 20.

What about the “Plant response rating, Windgrass” value [8, 13] of the same compound?
The value was 20.

And the “Plant response rating, Windgrass” value [8, 14]?
The value was 30.

And the “Plant response rating, Windgrass” value [8, 15]?
Its value is 30.

What about the “Plant response rating, Ryegrass, Italian” value [9, 12] of the same compound?
Its value is 0.

And the “Plant response rating, Ryegrass, Italian” value ([9]; 125 g ai/ha, scale 0-100)?
Its value is 0.

What about the “Plant response rating, Ryegrass, Italian” value ([9]; 250 g ai/ha, scale 0-100) of the same compound?
The value was 30.

What about the “Plant response rating, Bromegrass, Downy” value [10, 12] of the same compound?
Its value is 0.

And the “Plant response rating, Bromegrass, Downy” value ([10]; 62 g ai/ha, scale 0-100)?
The value was 0.

What about the “Plant response rating, Bromegrass, Downy” value ([10]; 125 g ai/ha, scale 0-100) of the same compound?
Its value is 0.

And the “Plant response rating, Bromegrass, Downy” value ([10]; 250 g ai/ha, scale 0-100)?
The value was 10.

And the “Plant response rating, Field Poppy” value ([11]; 31 g ai/ha, scale 0-100)?
Its value is 65.

And the “Plant response rating, Field Poppy” value [11, 13]?
The value was 70.

And the “Plant response rating, Field Poppy” value [11, 14]?
The value was 100.

And the “Plant response rating, Field Poppy” value [11, 15]?
Its value is 100.
